# Data: article PMC4500499, “Azanitrile Cathepsin K Inhibitors: Effects on Cell Toxicity, Osteoblast-Induced Mineralization and Osteoclast-Mediated Bone Resorption” (PLoS ONE, 2015)
# Molecular target: T1, cathepsin K (Homo sapiens, UniProt P43235)
# T1 construct: gene CTSK; recombinant human CatK
# T1 sequence (P43235 115-329): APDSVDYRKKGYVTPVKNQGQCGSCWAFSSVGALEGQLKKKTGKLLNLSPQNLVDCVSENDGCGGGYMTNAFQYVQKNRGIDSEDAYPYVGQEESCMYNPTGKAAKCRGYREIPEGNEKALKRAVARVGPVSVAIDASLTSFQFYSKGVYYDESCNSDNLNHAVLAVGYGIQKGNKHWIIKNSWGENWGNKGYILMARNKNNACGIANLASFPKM
# Assay: gelatin zymography with recombinant human CatK
# Type: biochemical
row,SMILES,IC50 [nM]
1,CC(C)C[C@H](NC(=O)c1ccc(-c2ccc(-c3ccccc3)cc2)cc1)C(=O)N(C)N(C)C#N [CKI-8],51 ± 20
2,CC(C)C[C@H](NC(=O)c1cccc(-c2ccc(-c3ccccc3)cc2)c1)C(=O)N(C)N(C)C#N [CKI-13],29 ± 11
